# Measured values reported in publication PMC3523387 (Planta medica, 2012).
# Molecular target: T1, protein tyrosine phosphatase 1B (PTP1B) (Homo sapiens, UniProt P18031)
# T1 sequence (P18031 1-435): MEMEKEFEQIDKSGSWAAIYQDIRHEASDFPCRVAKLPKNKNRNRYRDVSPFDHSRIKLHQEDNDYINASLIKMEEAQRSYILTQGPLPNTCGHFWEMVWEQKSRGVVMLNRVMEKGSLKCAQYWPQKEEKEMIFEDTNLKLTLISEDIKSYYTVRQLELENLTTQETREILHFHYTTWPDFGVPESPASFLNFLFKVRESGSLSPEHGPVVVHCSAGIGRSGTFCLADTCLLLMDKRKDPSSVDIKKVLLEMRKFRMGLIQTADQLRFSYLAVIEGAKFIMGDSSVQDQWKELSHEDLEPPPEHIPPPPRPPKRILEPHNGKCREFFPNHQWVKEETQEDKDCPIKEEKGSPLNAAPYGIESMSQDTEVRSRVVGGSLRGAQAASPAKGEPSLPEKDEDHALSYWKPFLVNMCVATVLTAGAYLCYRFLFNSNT
# Assay: colorimetric pNPP hydrolysis assay with human recombinant PTP1B, dose-response
# Type: biochemical
substance,measurement,value
ratanhiaphenol III [compound 9],IC50,20.2 µM
